{"source": "paper PMC12817916", "about": "“A small-molecule HSP90 inhibitor, NVP-HSP990, alleviates rotavirus infection” (Journal of Virology, 2025)", "test_system": "RV (Wa or SA11 strains)", "test": "RV replication in Caco-2 cells at varying MOI and timing of drug addition (PFA)", "type": "cell-based, Rotavirus", "experimental": "Rhesus monkey embryo kidney cell line MA104 cells (ATCC: CRL-2378.1) were provided by Dr. Elschner (Friedrich-Loeffler-Institute). Human intestinal epithelial cell lines Caco-2 cells (ATCC: HTB-37) and HT-29 cells (ATCC: HTB-38) were from ATCC and kept in our institute. All the cells were cultured in complete DMEM (Dulbecco’s modified Eagle medium [Gibco, USA] plus 10% [vol/vol] fetal bovine serum [FBS] [Gibco, USA] and 1% penicillin/streptomycin [Gibco, USA]) at 37°C with 5% CO2. RV Wa (G1P[8]) and SA11 (G3P[2]) strains were gifted by Professor Duan Zhaojun from the China Center for Disease Control and Prevention (Beijing, China) and propagated in MA104 cells. RV EDIM strain G16P[16] was gifted by Professor Wan Jianwei in Christophe Merieux Laboratory (Beijing) and propagated in BALB/c suckling mice. For RV infection in vitro, the viruses were diluted in DMEM, activated with 10 µg/mL trypsin (Gibco, USA) for 30 min at 37°C, and then added to target cells previously washed once with DMEM. After 1 h of incubation at 37°C, the inoculum was removed; the cells were then washed twice with DMEM (without FBS) and incubated with DMEM (without FBS) at 37°C, which was denoted as 0 h post-infection (h p.i.). HSP90 inhibitors (NVP-HSP990, GA, and 17-AAG) and Ribavirin (Selleck, USA) were dissolved in DMSO (Sigma, USA). The drugs were administered with indicated concentrations at 0 h p.i. in vitro unless otherwise stated, or orally administered in 10 µL volume using a pipette tip with the indicated quantity plus 90% (vol/vol) corn oil.\n(A) Caco-2 cells were infected with RV (Wa or SA11 strains) at varying MOIs (0.001–10), followed by treatment with 100 nM NVP-HSP990 or an equal volume of DMSO (as a control) for 24 h. Viral replication was assessed using PFA. (B) Schematic diagram illustrating the timing of NVP-HSP990 addition and removal. (C) Caco-2 cells were infected with RV (MOI = 1) and treated with 100 nM NVP-HSP990 or with DMSO as control at indicated infection periods as shown in panel B. Viral replication was tested with PFA at 20 h p.i. (D) Caco-2 cells were infected with RV (MOI = 1) and treated with 100 nM HSP990 at 0, 4, 8, 12 h p.i. or treated with DMSO at 0 h p.i. Virus replication was tested with PFA at 24 h p.i. (E) Caco-2 cells were infected with RV (MOI = 1) and further cultivated with DMEM containing 100 nM NVP-HSP990 or DMSO as control for 18 h. Then the infected cells were harvested for qPCR analysis of the expression of RV genes encoding the VP2, VP6, NSP4, and NSP5 proteins. (F) Caco-2 cells were mock-infected with PBS or infected with RV (MOI = 1) and further cultivated with DMEM containing 100 nM NVP-HSP990 or DMSO as control for 18 h. Then the cells were harvested for WB analysis of RV structural proteins VP6 and VP7. […]", "data": [{"smiles": "COc1cccc(-c2cc(F)ccc2[C@H]2Cc3nc(N)nc(C)c3C(=O)N2)n1", "note": "[NVP-HSP990]", "values": [{"measurement": "inhibitory effect on RV replication", "setting": "100 nM, administered after RV infection (0 ~ 20 h p.i.), PFA at 20 h p.i.", "result": "~100", "unit": "fold"}, {"measurement": "reduction of final level of RV replication", "setting": "100 nM, administered during RV infection (−1 ~ 0 h p.i.), PFA at 20 h p.i.", "result": "~ 1 fold"}, {"measurement": "inhibition of RV replication across MOIs", "setting": "Wa or SA11, MOI 0.001 to 10, 100 nM, 24 h p.i., PFA", "result": "Robust inhibition"}, {"measurement": "establishment of RV infection or subsequent viral replication", "setting": "pre-treatment prior to RV infection (−2 ~ −1 h p.i.)", "result": "did not significantly interfere"}]}]}
